This note sets out measurements from US11999716B2, “WDR5 inhibitors and modulators” (priority 2018, dated 2024).

SMILES strings stand for the structures.

In one assay the test system is MV4:11 human cancer cell lines. Briefly: Cellular viability / anti-proliferative activity, CellTiter-Glo, 5 day protocol. It is filed as cell-based. Particulars: Homo sapiens, MV4-11, 120 h, MV4:11 cells; 5 day incubation; CellTiter-Glo; mean of minimum two replicates; read-out: GI50 on cellular proliferation of MV4:11 human cancer cell lines. Here is the method:
Cellular Viability of Human Tumor Cell Lines
Anti proliferative activity using MLL-harboring cell lines. […] Viability assays are performed by dispensing 200 cells at 7200 cells/mL into each well of an opaque 384-well plate and adding compounds at the indicated concentrations in a final volume of 32 μL and a final concentration of DMSO of 0.3% for all samples. A certain range of compound concentrations is made through a series of 2-fold dilutions starting 30 μM at the highest, total 22 dilutions. After a set incubation period, 5 day protocol, the viability of cells in each well is assessed using the CellTiter-Glo assay (Promega), read on a 96 Microplane Luminometer (Cytation 3, BioTek). Serial dilutions of each cell type are performed in all assays to generate standard curves and the final densities of cells are determined within the dynamic range of the instrument. GI50 values are calculated based on XLfit software (IDBS, Guildford, UK) with Sigmoidal Dose-Response Model. Each compound is tested in minimum of two replicates. Data are expressed as mean.
`COc1ccnc([C@H](C)N2CCc3c(cc(Cn4ccsc4=N)cc3-c3cn(C)nc3C(F)(F)F)C2=O)c1` [Example 105, (S)-7-((2-iminothiazol-3(2H)-yl)methyl)-2-(1-(4-methoxypyridin-2-yl)ethyl)-5-(1-methyl-3-(trifluoromethyl)-1H-pyrazol-4-yl)-3,4-dihydroisoquinolin-1(2H)-one]: the GI50 is < 50 nM.

Turning to `Cc1cnc(CN2CCc3c(cc(Cn4ccnc4C)cc3-c3cn(C)nc3C(F)(F)F)C2=O)s1` [Example 195, 7-((2-Methyl-1H-imidazol-1-yl)methyl)-5-(1-methyl-3-(trifluoromethyl)-1H-pyrazol-4-yl)-2-((5-methylthiazol-2-yl)methyl)-3,4-dihydroisoquinolin-1(2H)-one], the GI50 turned out to be 217 nM.

With `CCn1cc(-c2cc(CN3CCOC3=N)cc3c2CCN(Cc2cc(OC)ccn2)C3=O)cn1` [Example 86, 5-(1-Ethyl-1H-pyrazol-4-yl)-7-((2-iminooxazolidin-3-yl)methyl)-2-((4-methoxypyridin-2-yl)methyl)-3,4-dihydroisoquinolin-1(2H)-one], the GI50 was determined as 740 nM.

As to `Cc1cc([C@H](C)N2CCc3c(cc(Cn4ccnc4C)cc3-c3cn(C)nc3C(F)(F)F)C2=O)ncc1F` [Example 163, (S)-2-(1-(5-fluoro-4-methylpyridin-2-yl)ethyl)-7-((2-methyl-1H-imidazol-1-yl)methyl)-5-(1-methyl-3-(trifluoromethyl)-1H-pyrazol-4-yl)-3,4-dihydroisoquinolin-1(2H)-one], the GI50 is < 50 nM.

On to `CCn1cc(-c2cc(Cn3ccsc3=N)cc3c2CCN(Cc2cc(OC)ccn2)C3=O)cn1` [Example 102, 5-(1-ethyl-1H-pyrazol-4-yl)-7-((2-iminothiazol-3(2H)-yl)methyl)-2-((4-methoxypyridin-2-yl)methyl)-3,4-dihydroisoquinolin-1(2H)-one], for which the GI50 is > 938 nM.

Consider `COc1cc(CN2CCc3c(cc(Cn4ccnc4C4CC4)cc3-c3ccc(F)cc3C)C2=O)cc(OC)c1` [Example 16, 7-((2-Cyclopropyl-1H-imidazol-1-yl)methyl)-2-(3,5-dimethoxybenzyl)-5-(4-fluoro-2-methylphenyl)-3,4-dihydroisoquinolin-1(2H)-one], for which the GI50 was > 938 nM.

In the case of `Cn1ccn(Cc2cc3c(cc2F)CCN(Cc2ccc(Cl)c(Cl)c2)C3=O)c1=N` [Example 26, 2-(3,4-Dichlorobenzyl)-6-fluoro-7-((2-imino-3-methyl-2,3-dihydro-1H-imidazol-1-yl)methyl)-3,4-dihydroisoquinolin-1(2H)-one], the GI50 is > 938 nM.

`COc1ccnc([C@H](C2CC2)N2CCc3c(cc(Cn4ccnc4)cc3-c3cn(C)nc3C)C2=O)c1` [Example 211, (S)-7-((1H-Imidazol-1-yl)methyl)-2-(cyclopropyl(4-methoxypyridin-2-yl)methyl)-5-(1,3-dimethyl-1H-pyrazol-4-yl)-3,4-dihydroisoquinolin-1(2H)-one]: the GI50 is 84 nM.

Take `COc1ccnc([C@H](C2CC2)N2CCc3c(cc(Cn4ccnc4)cc3-c3cn(C)nc3C(F)(F)F)C2=O)c1` [Example 252, (S)-7-((1H-Imidazol-1-yl)methyl)-2-(cyclopropyl(4-methoxypyridin-2-yl)methyl)-5-(1-methyl-3-(trifluoromethyl)-1H-pyrazol-4-yl)-3,4-dihydroisoquinolin-1(2H)-one]: the GI50 was < 50 nM.

With `COc1cc(CN2CCc3c(OC4CCC4)cc(Cn4ccoc4=N)cc3C2=O)cc(OC)c1` [Example 92, 5-Cyclobutoxy-2-(3,5-dimethoxybenzyl)-7-((2-iminooxazol-3(2H)-yl)methyl)-3,4-dihydroisoquinolin-1(2H)-one], the GI50 is > 938 nM.

Take `Cc1ccnc([C@@H](C2CC2)N2CCc3c(cc(Cn4ccn(C)c4=N)cc3-c3ccc(F)cc3C)C2=O)c1` [Example 33, (R)-2-(Cyclopropyl(4-methylpyridin-2-yl)methyl)-5-(4-fluoro-2-methylphenyl)-7-((2-imino-3-methyl-2,3-dihydro-1H-imidazol-1-yl)methyl)-3,4-dihydroisoquinolin-1(2H)-one]: the GI50 is 553 nM.

Regarding `Cc1cc(CN2CCc3c(cc(Cn4ccnc4C)cc3-c3cccnc3C)C2=O)ccc1Cl` [Example 7, 2-(4-Chloro-3-methylbenzyl)-7-((2-methyl-1H-imidazol-1-yl)methyl)-5-(2-methylpyridin-3-yl)-3,4-dihydroisoquinolin-1(2H)-one], the GI50 was 572 nM.

With `CCc1ccnc(CN2CCc3c(cc(Cn4ccnc4CC)cc3-c3cn(CC)nc3C(F)(F)F)C2=O)c1` [Example 149, 7-((2-Ethyl-1H-imidazol-1-yl)methyl)-5-(1-ethyl-3-(trifluoromethyl)-1H-pyrazol-4-yl)-2-((4-ethylpyridin-2-yl)methyl)-3,4-dihydroisoquinolin-1(2H)-one], the GI50 was < 50 nM.

Take `COc1cc(CN2CCc3c(cc(Cn4ccn(C)c4=N)cc3-c3cc(C)nc(C)c3)C2=O)cc(OC)c1` [Example 154, 2-(3,5-Dimethoxybenzyl)-5-(2,6-dimethylpyridin-4-yl)-7-((2-imino-3-methyl-2,3-dihydro-1H-imidazol-1-yl)methyl)-3,4-dihydroisoquinolin-1(2H)-one]: the GI50 is 559 nM.

Take `Cc1ccnc(CN2CCc3c(cc(Cn4ccoc4=N)cc3-c3cn(C)nc3C(F)(F)F)C2=O)c1` [Example 88, 7-((2-Iminooxazol-3(2H)-yl)methyl)-5-(1-methyl-3-(trifluoromethyl)-1H-pyrazol-4-yl)-2-((4-methylpyridin-2-yl)methyl)-3,4-dihydroisoquinolin-1(2H)-one]: the GI50 was < 50 nM.

With `Cn1cc(-c2cc(Cn3ccn(C)c3=N)cc3c2CCN(Cc2cc(C4CC4)nn2C)C3=O)c(C(F)(F)F)n1` [Example 147, 2-((3-Cyclopropyl-1-methyl-1H-pyrazol-5-yl)methyl)-7-((2-imino-3-methyl-2,3-dihydro-1H-imidazol-1-yl)methyl)-5-(1-methyl-3-(trifluoromethyl)-1H-pyrazol-4-yl)-3,4-dihydroisoquinolin-1(2H)-one], the GI50 was 73 nM.

Consider `COc1cc(CN2CCc3c(cc(Cn4ccn(C)c4=N)cc3-c3c(C)nn(C)c3C)C2=O)cc(OC)c1` [Example 64, 2-(3,5-Dimethoxybenzyl)-7-((2-imino-3-methyl-2,3-dihydro-1H-imidazol-1-yl)methyl)-5-(1,3,5-trimethyl-1H-pyrazol-4-yl)-3,4-dihydroisoquinolin-1(2H)-one], for which the GI50 was > 938 nM.

For the molecule `CCn1cc(-c2cc(Cn3cc4n(c3=N)CCC4)cc3c2CCN(Cc2cc(OC)ccn2)C3=O)c(C(F)(F)F)n1` [Example 56, 5-(1-Ethyl-3-(trifluoromethyl)-1H-pyrazol-4-yl)-7-((3-imino-6,7-dihydro-3H-pyrrolo[1,2-c]imidazol-2(5H)-yl)methyl)-2-((4-methoxypyridin-2-yl)methyl)-3,4-dihydroisoquinolin-1(2H)-one], the GI50 was found to be 870 nM.

With `COc1ccnc([C@H](C)N2CCc3c(cc(Cn4ccn(C)c4=N)cc3-c3cn(C)nc3C(F)(F)F)C2=O)c1` [Example 71, (S)-7-((2-Imino-3-methyl-2,3-dihydro-1H-imidazol-1-yl)methyl)-2-(1-(4-methoxypyridin-2-yl)ethyl)-5-(1-methyl-3-(trifluoromethyl)-1H-pyrazol-4-yl)-3,4-dihydroisoquinolin-1(2H)-one], the GI50 is < 50 nM.

Staying with this assay, now noted: MV4:11 cells; 5 day incubation; CellTiter-Glo; mean of minimum two replicates; read-out: GI50 on cellular proliferation of MV4:11 human cancer cell lines.
Consider `Cn1cc(-c2cc(Cn3ccn(C)c3=N)cc3c2CCN(Cc2cc(C4CC4)nn2C)C3=O)c(C(F)(F)F)n1` [Example 147, 2-((3-Cyclopropyl-1-methyl-1H-pyrazol-5-yl)methyl)-7-((2-imino-3-methyl-2,3-dihydro-1H-imidazol-1-yl)methyl)-5-(1-methyl-3-(trifluoromethyl)-1H-pyrazol-4-yl)-3,4-dihydroisoquinolin-1(2H)-one], for which the GI50 was 81 nM.
